{"source": "patent US20240358693A1", "about": "“METHODS OF TREATING PAIN” (Aisa Pharma, Inc., priority 2023, published 2024)", "system": "participants with SSc-RP", "test": "Scleroderma Health Assessment Questionnaire (SHAQ): disability indices and visual analog scales", "assay_type": "in vivo, human", "conditions": "Day 12 vs baseline; PP Population, Part A; SSc patients; sensitivity analysis", "text": "The standard, validated, patient reported outcome measures tool for SSc patients, the Scleroderma Health Assessment Questionnaire (SHAQ), will be used to assess the participant qualify of life. Details are attached in the Appendix. The participant quality of life will be scored, and a disability index calculated for each questionnaire completed by the patient at Screening and each in-clinic visit. The absolute change in participant quality of life from baseline to the end of each dosing period will be calculated similar to frequency data as before.\nThe SHAQ includes a Raynaud's VAS, which will be reported at screening and each in-clinic visit. The absolute change in Raynaud-VAS, assessed by the participants response to the SHAQ question ‘In the past 7 days, how much have your Raynaud's interfered with your daily activities?’ at baseline and the end of each dosing period will be calculated similar to frequency data as before.\nThe SHAQ is used to calculate a Disability Index to assess the participant qualify of life. The eight categories assessed by the Disability Index are 1) dressing and grooming, 2) arising, 3) eating, 4) walking, 5) hygiene, 6) reach, 7) grip, and 8) common daily activities. For each of these categories, patients report the amount of difficulty they have in performing two or three specific activities.\nThere are four possible responses for the Disability Index questions: • Without any difficulty=0 • With some difficulty=1 • With much difficulty=2 • Unable to do=3. • The highest score reported by the patient for any component question of the eight categories determines the score for that category. • If a component question is left blank or the response is too ambiguous to assign a score, then the score for that category is determined by the remaining completed question(s). • If all component questions are blank or if more than one answer is given, then follow up with the respondent is required. • If the respondent's mark is between the response columns, then move it to the closest one. If it's directly between the two, move it to the higher one.\nEach of the disability items on the SHAQ has a companion aids/devices variable that is used to record what type(s) of assistance, if any, the participant uses for his/her usual activities. These variables (see below) are coded as follows: • 0=No assistance is needed. • 1=A special device is used by the patient in his/her usual activities. • 2=The patient usually needs help from another person. • 3=The patient usually needs BOTH a special device AND help from another person.\nThe scoring variables and scoring rules permit the computation of two disability indices, the Standard Disability Index and the Alternative Disability Index.\nThis question results in a new set of category scores that are computed by adjusting the score for each category, if necessary, based on the patient's use of an aid or device or assistance for that category. If either devices and/or help from another person are checked for a category, the score is set to “2”, unless the score is already “3” (i.e., scores of “0” or “1” are increased to “2”). For example, if the highest score for the dressing category is “1”, and the patient says they use a device for dressing, the computed category score would be “2”. The sum of the computed categories scores is then calculated and divided by the number of categories answered. This gives a score in the 0 to 3 range.\nThe aid and device variables are not used to calculate the alternative disability index; it is calculated by adding the scores for each of the categories and dividing by the number of categories answered. This gives a score in the 0 to 3 range.\nThe standard, validated, patient reported outcome measures tool for SSc patients, the SHAQ, was collected at the time points specified in the study schedules (FIG. 2 and FIGS. 4A and 4B) to assess the participant's quality of life. The SHAQ included a Raynaud's VAS that will also be reported separately."}
{"smiles": "COCCOC(=O)C1=C(C)NC(C)=C(C(=O)OC/C=C/c2ccccc2)C1c1cccc([N+](=O)[O-])c1", "note": "(stereo not drawn) [Pooled Cilnidipine]", "values": [{"measurement": "SHAQ Alternative Disability Index, Change from Baseline, Max", "value": 0.38}, {"measurement": "SHAQ Alternative Disability Index, Change from Baseline, Mean", "value": 0.031}, {"measurement": "SHAQ Alternative Disability Index, Change from Baseline, Median", "value": 0.000}, {"measurement": "SHAQ Alternative Disability Index, Change from Baseline, Min", "value": "−0.13"}, {"measurement": "SHAQ Alternative Disability Index, Change from Baseline, Q1", "value": "−0.125"}, {"measurement": "SHAQ Alternative Disability Index, Change from Baseline, Q3", "value": 0.125}, {"measurement": "SHAQ Alternative Disability Index, Percent Change from Baseline, Max", "value": 100.0, "unit": "%"}, {"measurement": "SHAQ Alternative Disability Index, Percent Change from Baseline, Mean", "value": 9.68, "unit": "%"}, {"measurement": "SHAQ Alternative Disability Index, Percent Change from Baseline, Median", "value": "−11.11", "unit": "%"}, {"measurement": "SHAQ Alternative Disability Index, Percent Change from Baseline, Min", "value": "−50.0", "unit": "%"}, {"measurement": "SHAQ Alternative Disability Index, Percent Change from Baseline, Q1", "value": "−33.33", "unit": "%"}, {"measurement": "SHAQ Alternative Disability Index, Percent Change from Baseline, Q3", "value": 42.86, "unit": "%"}, {"measurement": "SHAQ Visual Analogue Scale - Finger Ulcers, Change from Baseline, Max", "value": 0.40}, {"measurement": "SHAQ Visual Analogue Scale - Finger Ulcers, Change from Baseline, Mean", "value": "−0.643"}, {"measurement": "SHAQ Visual Analogue Scale - Finger Ulcers, Change from Baseline, Median", "value": 0.000}, {"measurement": "SHAQ Visual Analogue Scale - Finger Ulcers, Change from Baseline, Min", "value": "−3.20"}, {"measurement": "SHAQ Visual Analogue Scale - Finger Ulcers, Change from Baseline, Q1", "value": "−1.000"}, {"measurement": "SHAQ Visual Analogue Scale - Finger Ulcers, Change from Baseline, Q3", "value": 0.000}, {"measurement": "SHAQ Visual Analogue Scale - Finger Ulcers, Percent Change from Baseline, Max", "value": 133.3, "unit": "%"}, {"measurement": "SHAQ Visual Analogue Scale - Finger Ulcers, Percent Change from Baseline, Mean", "value": "−17.08", "unit": "%"}, {"measurement": "SHAQ Visual Analogue Scale - Finger Ulcers, Percent Change from Baseline, Median", "value": "−50.82", "unit": "%"}, {"measurement": "SHAQ Visual Analogue Scale - Finger Ulcers, Percent Change from Baseline, Min", "value": "−100.0", "unit": "%"}, {"measurement": "SHAQ Visual Analogue Scale - Finger Ulcers, Percent Change from Baseline, Q1", "value": "−81.37", "unit": "%"}, {"measurement": "SHAQ Visual Analogue Scale - Finger Ulcers, Percent Change from Baseline, Q3", "value": 47.22, "unit": "%"}, {"measurement": "SHAQ Visual Analogue Scale - Intestinal Problems, Change from Baseline, Max", "value": 0.60}, {"measurement": "SHAQ Visual Analogue Scale - Intestinal Problems, Change from Baseline, Mean", "value": "−0.863"}, {"measurement": "SHAQ Visual Analogue Scale - Intestinal Problems, Change from Baseline, Median", "value": "−0.050"}, {"measurement": "SHAQ Visual Analogue Scale - Intestinal Problems, Change from Baseline, Min", "value": "−4.40"}, {"measurement": "SHAQ Visual Analogue Scale - Intestinal Problems, Change from Baseline, Q1", "value": "−1.650"}, {"measurement": "SHAQ Visual Analogue Scale - Intestinal Problems, Change from Baseline, Q3", "value": 0.150}, {"measurement": "SHAQ Visual Analogue Scale - Intestinal Problems, Percent Change from Baseline, Max", "value": 40.0, "unit": "%"}, {"measurement": "SHAQ Visual Analogue Scale - Intestinal Problems, Percent Change from Baseline, Mean", "value": "−43.69", "unit": "%"}, {"measurement": "SHAQ Visual Analogue Scale - Intestinal Problems, Percent Change from Baseline, Median", "value": "−66.06", "unit": "%"}, {"measurement": "SHAQ Visual Analogue Scale - Intestinal Problems, Percent Change from Baseline, Min", "value": "−100.0", "unit": "%"}, {"measurement": "SHAQ Visual Analogue Scale - Intestinal Problems, Percent Change from Baseline, Q1", "value": "−100.00", "unit": "%"}, {"measurement": "SHAQ Visual Analogue Scale - Intestinal Problems, Percent Change from Baseline, Q3", "value": 30.00, "unit": "%"}, {"measurement": "SHAQ Visual Analogue Scale - Overall Disease Severity, Change from Baseline, Max", "value": 0.20}, {"measurement": "SHAQ Visual Analogue Scale - Overall Disease Severity, Change from Baseline, Mean", "value": "−1.450"}, {"measurement": "SHAQ Visual Analogue Scale - Overall Disease Severity, Change from Baseline, Median", "value": "−1.550"}, {"measurement": "SHAQ Visual Analogue Scale - Overall Disease Severity, Change from Baseline, Min", "value": "−3.10"}, {"measurement": "SHAQ Visual Analogue Scale - Overall Disease Severity, Change from Baseline, Q1", "value": "−1.850"}, {"measurement": "SHAQ Visual Analogue Scale - Overall Disease Severity, Change from Baseline, Q3", "value": "−0.950"}, {"measurement": "SHAQ Visual Analogue Scale - Overall Disease Severity, Percent Change from Baseline, Max", "value": "−26.8", "unit": "%"}, {"measurement": "SHAQ Visual Analogue Scale - Overall Disease Severity, Percent Change from Baseline, Mean", "value": "−61.10", "unit": "%"}, {"measurement": "SHAQ Visual Analogue Scale - Overall Disease Severity, Percent Change from Baseline, Median", "value": "−60.00", "unit": "%"}, {"measurement": "SHAQ Visual Analogue Scale - Overall Disease Severity, Percent Change from Baseline, Min", "value": "−100.0", "unit": "%"}, {"measurement": "SHAQ Visual Analogue Scale - Overall Disease Severity, Percent Change from Baseline, Q1", "value": "−76.19", "unit": "%"}, {"measurement": "SHAQ Visual Analogue Scale - Overall Disease Severity, Percent Change from Baseline, Q3", "value": "−44.12", "unit": "%"}, {"measurement": "SHAQ Visual Analogue Scale - Pain, Change from Baseline, Max", "value": 0.70}, {"measurement": "SHAQ Visual Analogue Scale - Pain, Change from Baseline, Mean", "value": "−0.375"}, {"measurement": "SHAQ Visual Analogue Scale - Pain, Change from Baseline, Median", "value": "−0.250"}, {"measurement": "SHAQ Visual Analogue Scale - Pain, Change from Baseline, Min", "value": "−2.00"}, {"measurement": "SHAQ Visual Analogue Scale - Pain, Change from Baseline, Q1", "value": "−0.750"}, {"measurement": "SHAQ Visual Analogue Scale - Pain, Change from Baseline, Q3", "value": 0.150}, {"measurement": "SHAQ Visual Analogue Scale - Pain, Percent Change from Baseline, Max", "value": 19.4, "unit": "%"}, {"measurement": "SHAQ Visual Analogue Scale - Pain, Percent Change from Baseline, Mean", "value": "−23.98", "unit": "%"}, {"measurement": "SHAQ Visual Analogue Scale - Pain, Percent Change from Baseline, Median", "value": "−41.18", "unit": "%"}, {"measurement": "SHAQ Visual Analogue Scale - Pain, Percent Change from Baseline, Min", "value": "−55.6", "unit": "%"}, {"measurement": "SHAQ Visual Analogue Scale - Pain, Percent Change from Baseline, Q1", "value": "−53.33", "unit": "%"}, {"measurement": "SHAQ Visual Analogue Scale - Pain, Percent Change from Baseline, Q3", "value": 11.54, "unit": "%"}, {"measurement": "SHAQ Visual Analogue Scale - Raynaud’s, Change from Baseline, Max", "value": 1.50}, {"measurement": "SHAQ Visual Analogue Scale - Raynaud’s, Change from Baseline, Mean", "value": "−0.438"}, {"measurement": "SHAQ Visual Analogue Scale - Raynaud’s, Change from Baseline, Median", "value": "−0.600"}]}
